The subject of one test is Bax degradation activity. As to the kind of experiment: cell-free Bax (or Bcl-2) degradation assay with extracts of inhibitor-pretreated cells. The format is cell-based, human. As for the experimental part: FIGS. 9A-9F show Bax degradation depends on ubiquitination, proteasome and ATP. (FIG. 9A) Jurkat cells (0 h) were treated with either 50 μM LLnV or 10 μM lactacystin, followed by preparation of Bax immunoprecipitates (with clone 6A7), which were immunoblotted with an ubiquitin antibody. Positions of putative ubiquitinated Bax proteins (p47, p55) are indicated at left. The nature of the ˜30 kDa and ˜84 kDa remains unclear. (FIG. 9B) The [^35S]-labeled Bax (upper) or Bcl-2 (lower) protein (1 μl) were incubated at 37° C. for 2 h with either buffer Z only (lane 1) or […] protein extract of MCF-7 cells grown exponentially (lane 2) or pretreated for 8 h with […] LLnV (lane 3). (FIG. 9C) The [^35S]-labeled Bax protein (1 μl) was incubated with either buffer Z only (lane 1) or 100 μg MCF-7 cell lysate at 37° C. for 4 h, in the presence of an indicated inhibitor (100 mM; lanes 3-8) or an equal volume of DMSO (lane 2) in buffer Z. A weak band of ˜16 kDa (indicated by an arrow) is probably an intermediate product of proteasome-mediated Bax degradation. (FIG. 9D) The proteasome in MCF-7 whole cell lysate (W lys, lane 1) was precipitated by using either ultraspin (ULS) or a proteasome subunit a6 antibody (IP). Both supernatant (lanes 2, 4) and pellet (lanes 3, 5) fractions were examined by Western blot assay using antibody to the proteasome a6 subunit (MW 33 kDa). (FIG. 9E) Bax degradation assay was performed as in FIG. 9B, with addition of buffer Z (lane 1) or 100 μg protein from MCF-7 whole cell lysate (lane 2), ultraspun supernatant (lane 3) or plus the pellet (lane 4), immunodepleted supernatant (lane 5) or plus a purified 20S proteasome ([…]; lane 6), or the purified proteasome alone (2 μg; lane 7). (FIG. 9F) Bax degradation assay was performed as in FIG. 9B, in the absence (lane 3) or presence of 10 mM ATP (lane 2) or 10 mM ATP-y-S (lane 4).
In vitro Bax Degradation Assay: Human Bax-a cDNA subcloned into pcDNA3 was a gift from Dr. Hong-gang Wang. Human full length of bcl-2-a cDNA was cloned from Jurkat T cells and subcloned into pcDNA3.1(−) as described+. Both bax and bcl-2 plasmids were used for coupled in vitro transcription/translation (Promega; Madison, Wis.) in the presence of [^35S]methionine (Amersham Pharmacia Biotech; Piscataway, N.J.). Protein extracts were prepared from either MCF-7 cells or prostate tumor tissues in buffer Y (50 mM Tris-HCl, pH 7.4, 250 mM NaCl, 1% Triton X-100, 0.1% SDS, 1 mM EDTA), and used for Bax (or Bcl-2) degradation assay. […]

In another test the test system is MCF-7 cells. As to the kind of experiment: Bax level and PARP cleavage in MCF-7 cells. The format is cell-based, human. To be noted: LLnV. The source says: Levels of BDA predict levels of Bax and consequently influence sensitivity of human cancer cells to proteasome inhibitor-induced apoptosis. Basal level of Bax protein in SV40-transformed WI-38 cells (VA13) was several-fold higher than that of human breast cancer MCF-7 cells (FIG. 1E, top panel, lanes 1 vs. 3). This is due to a much lower level of BDA in VA13 cells than in MCF-7 cells (FIG. 1E, lower panel, lanes 1 vs. 3). This conclusion is further confirmed by using increased amounts of protein extracts of each cell line in the cell-free BDA assay (FIG. 4A, top panel). […] In contrast, when MCF-7 cells were treated under the same conditions, Bax levels were not increased; PARP was cleaved only after 24 hours treatment, which is Bax-independent (FIG. 4B, lanes 6-9). Therefore, although highly preliminary, it appears that levels of BDA determine levels of Bax and consequently affect responsiveness of human cancer cells to proteasome inhibition-induced apoptosis.

[1] abbreviates: Jurkat T cells pretreated with LLnV (50 µM, 8 hours).

Where a SMILES comes first, the peptide text is derived from it. [ ]: non-standard residue; d: D form. The star is where a group is joined. Nva = CCC[C@H](N)C(=O)O; Cbz = O=C(OCc1ccccc1)*

As to `CCC[C@@H](C=O)NC(=O)[C@H](CC(C)C)NC(=O)[C@H](CC(C)C)NC(=O)OCc1ccccc1` [LLnV] (Cbz-Leu-Leu-[Nva]-aldehyde), in the test with Bax degradation activity (setting [1]), the “Bax degradation activity in the cell extract” value was “inhibited” and the “levels of labeled Bcl-2 after in vitro incubation” value is “no effects”. In addition, the “cell-free Bax degradation activity” value in the test on Bax degradation activity (MCF-7 cells pretreated for 8 h with 50 mM LLnV (FIG. 9B legend)) was “inhibited”. Further, in the test on Bax degradation activity (cells pretreated with LLnV), the “BDA inhibition, VA-13 compared with MCF-7” value is recorded as “a greater inhibition was observed in VA-13 than in MCF-7 cells”. Moreover, the “time after which PARP was cleaved” value with MCF-7 cells (Bax-independent) came to 24 h. Besides, the Bax levels entry in the test on MCF-7 cells (same conditions as VA-13) is reported as “not increased”.

The values are drawn from patent publication US6692927B2, “Bax degradation involvement in tumor survival and progression” (University of South Florida, priority 2000, dated 2004).
